Reference: US20100210635A1, “RENIN INHIBITORS” (Takeda Pharmaceutical Company Limited, priority 2006, published 2010)

Target: T1, Recombinant human renin (Homo sapiens, UniProt P00797)
T1 construct: isolate the active form (residues 67-406); made in house; host or cells: FreeStyle 293-F cells (transient expression of pcDNA3.1(+)/hREN)
T1 sequence (P00797 67-406): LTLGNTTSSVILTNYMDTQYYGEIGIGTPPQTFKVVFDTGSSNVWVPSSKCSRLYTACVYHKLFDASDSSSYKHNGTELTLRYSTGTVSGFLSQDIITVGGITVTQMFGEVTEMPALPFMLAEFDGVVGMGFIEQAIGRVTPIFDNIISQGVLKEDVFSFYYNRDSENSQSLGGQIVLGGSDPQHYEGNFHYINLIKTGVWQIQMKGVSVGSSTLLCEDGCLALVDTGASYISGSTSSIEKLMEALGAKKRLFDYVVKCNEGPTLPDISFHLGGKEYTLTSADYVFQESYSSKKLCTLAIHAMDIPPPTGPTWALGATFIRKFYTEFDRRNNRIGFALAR
Assay: In vitro enzymatic activity assay of Renin inhibitors (fluorescence, QXL520/HiLyteFluo488 peptide substrate)
Format: biochemical
Settings: not given
Excerpt: Test compounds in varying concentrations may be reacted with recombinant human renin in the presence of substrate, e.g., QXL520-γ-Abu-Ile-His-Pro-Phe-His-Leu-Val-Ile-His-Thr-Lys (HiLyteFluo488)-Arg-OH (Anaspec, San Jose, Calif.). The reaction can be followed kinetically using fluorescence (excitation λ=485 nm; emission λ=538 nm). Inhibition constants (IC50) may be calculated by non-linear curve fitting of the compound concentrations and fluorescence intensities to the standard IC50 equation.
Solutions of test compounds in varying concentrations (<2 mM final concentration) are prepared in dimethyl sulfoxide (DMSO) and then diluted into assay buffer comprising 50 mM Hepes, 1 mM EDTA, 1 mM DTT, 0.1 mg/ml BSA, 0.01% Brij35, pH 7.4. Alternatively, the assay can be performed with a high BSA concentration, wherein the buffer contains an additional 2% BSA.
Recombinant human renin (3 nM final concentration) is added to the dilutions and pre-incubated with the compounds for 10 minutes at 37° C. As described in Examples A-C above, human Renin can be obtained by expressing preprorenin (residue 1-406) in mammalian cells, treating the prorenin (residues 24-406) contained in the culture supernatant with trypsin, and isolate the active form (residues 67-406). After pre-incubation, the reaction is initiated with 1 μM of substrate QXL520-γ-Abu-Ile-His-Pro-Phe-His-Leu-Val-Ile-His-Thr-Lys (HiLyteFluo488)-Arg-OH (Anaspec, San Jose, Calif.). The final DMSO in the assay is 5%. The total volume of the reaction mixture is 20 μL, which can be placed on Greiner 384-well small volume plates.
Renin activity may be determined via fluorescence (excitation λ=485 nm; emission λ=538 nm), e.g., on a Molecular Devices SPECTROmax GEMINI XPS. The fluorescence intensity is determined upon the addition of substrate and determined again after incubation at 37° C. for one hour. The fluorescence intensity of a blank (no inhibition) using vehicle alone is also determined. Renin activity is linearly proportional to the change in fluorescence observed (final−initial).
The percent inhibition of Renin at a given compound concentration is defined as:
100%×[1−(Fcompound/Fblank)]
where Fcompound is the observed fluorescence at a given concentration of test compound and Fblank is the observed fluorescence in the presence of vehicle alone.
The pIC50 value (negative log of the molar concentration of the compound that produces 50% inhibition) of a test compound is calculated by non-linear least squares curve fitting of the equation: […]
to percent inhibition versus compound concentration. The 50% inhibitory concentration (IC50) of a test compound is calculated by raising 10 to the negative pIC50 (10^−pIC50).

Structure (SMILES) | IC50 [nM]
CCN(CC)C(=O)Oc1ccc(C[C@@H]2CNCCN2C(=O)CCc2ccccc2Oc2ccccc2)cc1 [Example 74, (R)-4-((1-(3-(2-phenoxyphenyl)propanoyl)piperazin-2-yl)methyl)-phenyl diethylcarbamate] | 500 to 5000

Same assay, conditions: recombinant human renin 3 nM, 1 μM substrate, 37° C., pH 7.4; values given as ranges; read-out: IC50 of Exemplified Compounds Against Renin

Structure (SMILES) | IC50 [nM]
O=C(Cc1ccccc1-c1ccc(F)cc1)N1CCNC[C@H]1Cc1ccccc1 [Example 3, (R)-1-(2-Benzylpiperazin-1-yl)-2-(4′-fluorobiphenyl-2-yl)ethanone] | 500 to 5000
Cc1ccc(C(CC(=O)N2CCNC[C@H]2Cc2ccccc2)N2Cc3ccccc3C2=O)cc1 (stereo partly drawn) [Example 14, 2-(3-((R)-2-Benzylpiperazin-1-yl)-3-oxo-1-p-tolylpropyl)isoindolin-1-one] | 500 to 5000
CC1(C)CC(CC(=O)N2CCNC[C@H]2Cc2ccccc2)(c2ccccc2)CCO1 (stereo partly drawn) [Example 20, 1-((R)-2-Benzylpiperazin-1-yl)-2-(2,2-dimethyl-4-phenyltetrahydro-2H-pyran-4-yl)ethanone] | 500 to 5000
CC(=O)NCc1ccccc1Oc1ccccc1CCC(=O)N1CCNC[C@H]1Cc1ccccc1 [Example 29, (R)—N-(2-(2-(3-(2-Benzylpiperazin-1-yl)-3-oxopropyl)phenoxy)benzyl)acetamide] | < 500
COc1ccc(Oc2ccccc2CCC(=O)N2CCNC[C@H]2Cc2ccccc2)c(CNC(C)=O)c1 [Example 41, (R)—N-(2-(2-(3-(2-benzylpiperazin-1-yl)-3-oxopropyl)phenoxy)-5-methoxybenzyl)acetamide] | < 500
CC(=O)NCCc1cc(C)ccc1Oc1ccc(C)cc1CCC(=O)N1CCNC[C@H]1Cc1ccccc1 [Example 25, (R)—N-(2-(2-(3-(2-Benzylpiperazin-1-yl)-3-oxopropyl)-4-methylphenoxy)-1-methylphenethyl)acetamide] | < 500
O=C(CCC(=O)N1CCNC[C@H]1Cc1ccccc1)c1ccccc1 [Example 5, (R)-1-(2-Benzylpiperazin-1-yl)-4-phenylbutane-1,4-dione] | > 50000
O=C(CCC1(c2ccccc2)CCCCC1=O)N1CCNC[C@H]1Cc1ccccc1 (stereo partly drawn) [Example 52, 2-(3-((R)-2-benzylpiperazin-1-yl)-3-oxopropyl)-2-phenylcyclohexanone] | 5000 to 50000
CC(=O)NCCCc1ccccc1Oc1ccccc1CCC(=O)N1CCNC[C@H]1Cc1ccccc1 [Example 48, (R)—N-(3-(2-(2-(3-(2-benzylpiperazin-1-yl)-3-oxopropyl)phenoxy)-phenyl)propyl)acetamide] | 500 to 5000
CC(=O)NCCc1cc(C)ccc1Oc1ccccc1CCC(=O)N1CCNC[C@H]1Cc1ccccc1 [Example 49, (R)—N-(2-(2-(3-(2-benzylpiperazin-1-yl)-3-oxopropyl)phenoxy)-5-methylphenethyl)acetamide] | < 500
C[C@H](CC(=O)N1CCNC[C@H]1Cc1ccccc1)c1ccccc1 [Example 17, (R)-1-((R)-2-Benzylpiperazin-1-yl)-3-phenylbutan-1-one] | 500 to 5000
O=C(Cc1ccccc1Oc1ccccc1)N1CCNC[C@H]1Cc1ccccc1 [Example 8, (R)-1-(2-Benzylpiperazin-1-yl)-2-(2-phenoxyphenyl)ethanone] | 5000 to 50000
O=C(Oc1ccccc1CCC(=O)N1CCNC[C@H]1Cc1ccccc1)c1ccccc1 [Example 21, (R)-2-(3-(2-Benzylpiperazin-1-yl)-3-oxopropyl)phenyl benzoate] | 500 to 5000
C[C@@H](CC(=O)N1CCNC[C@H]1Cc1ccccc1)c1ccccc1 [Example 18, (S)-1-((R)-2-Benzylpiperazin-1-yl)-3-phenylbutan-1-one] | 5000 to 50000
O=C(COc1cccc(Cc2ccccc2)c1)N1CCNC[C@H]1Cc1ccccc1 [Example 62, (R)-2-(3-benzylphenoxy)-1-(2-benzylpiperazin-1-yl)ethanone] | 5000 to 50000
O=C(CCc1ccccc1Oc1ccccc1)N1CCNC[C@H]1Cc1ccccc1 [Example 7, (R)-1-(2-Benzylpiperazin-1-yl)-3-(2-phenoxyphenyl)propan-1-one] | < 500
Cc1cccc(Oc2ccccc2CCC(=O)N2CCNC[C@H]2Cc2ccccc2)c1 [Example 23, (R)-1-(2-benzylpiperazin-1-yl)-3-(2-(m-tolyloxy)phenyl)propan-1-one] | < 500
CC(=O)NCc1ccc(C)nc1Oc1cc(C)ccc1CCC(=O)N1CCNC[C@H]1Cc1ccccc1 [Example 44, (R)—N-((2-(2-(3-(2-benzylpiperazin-1-yl)-3-oxopropyl)-5-methylphenoxy)-6-methylpyridin-3-yl)methyl)acetamide] | 500 to 5000
O=C(CCc1ccccc1Oc1ccc(Cl)cc1)N1CCNC[C@H]1Cc1ccccc1 [Example 22, (R)-1-(2-Benzylpiperazin-1-yl)-3-(2-(4-chlorophenoxy)phenyl)propan-1-one] | < 500
CC(=O)NCc1cc(C(F)(F)F)ccc1Oc1ccc(C)cc1CCC(=O)N1CCNC[C@H]1Cc1ccccc1 [Example 47, (R)—N-(2-(2-(3-(2-benzylpiperazin-1-yl)-3-oxopropyl)-4-methylphenoxy)-5-(trifluoromethyl)benzyl)acetamide] | 500 to 5000

The remaining lines, values ahead:

IC50 [nM] | Structure (SMILES)
< 500 | CC(=O)NCCc1ccccc1Oc1ccccc1CCC(=O)N1CCNC[C@H]1Cc1ccc(OCC(N)=O)cc1 [Example 81, (R)-2-(4-((1-(3-(2-(2-(2-acetamidoethyl)phenoxy)phenyl)propanoyl)piperazin-2-yl)methyl)phenoxy)acetamide]
< 500 | CC(=O)NCCc1ccccc1Cc1ccccc1CCC(=O)N1CCNC[C@H]1Cc1ccc(-c2nnn[nH]2)cc1 [Example 94, (R)—N-(2-(2-(3-(2-(4-(1H-tetrazol-5-yl)benzyl)piperazin-1-yl)-3-oxopropyl)benzyl)phenethyl)acetamide]
5000 to 50000 | O=C(NC1(CC(=O)N2CCNC[C@H]2Cc2ccccc2)CCCCC1)c1ccccc1 [Example 64, (R)—N-(1-(2-(2-benzylpiperazin-1-yl)-2-oxoethyl)cyclohexyl)benzamide]
500 to 5000 | O=C(O)COc1ccc(C[C@@H]2CNCCN2C(=O)CCc2ccccc2Oc2ccccc2)cc1 [Example 86, (R)-2-(4-((1-(3-(2-phenoxyphenyl)propanoyl)piperazin-2-yl)methyl)phenoxy)acetic acid]
< 500 | CC(=O)NCCc1ccccc1Cc1ccccc1CCC(=O)N1CCNC[C@H]1Cc1ccc(OCC(N)=O)cc1 [Example 89, (R)-2-(4-((1-(3-(2-(2-(2-acetamidoethyl)benzyl)phenyl)propanoyl)piperazin-2-yl)methyl)phenoxy)acetamide]
500 to 5000 | O=C(O)CCc1ccccc1Oc1ccccc1CCC(=O)N1CCNC[C@H]1Cc1ccccc1 [Example 82, (R)-3-(2-(2-(3-(2-Benzylpiperazin-1-yl)-3-oxopropyl)phenoxy)phenyl)propanoic acid]
500 to 5000 | CN(C)C(=O)COc1ccc(C[C@@H]2CNCCN2C(=O)CCc2ccccc2Oc2ccccc2)cc1 [Example 71, (R)—N,N-dimethyl-2-(4-((1-(3-(2-phenoxyphenyl)propanoyl)piperazin-2-yl)methyl)phenoxy)acetamide]
< 500 | COC(=O)CCc1ccccc1Oc1ccccc1CCC(=O)N1CCNC[C@H]1Cc1ccccc1 [Example 67, (R)-methyl 3-(2-(2-(3-(2-benzylpiperazin-1-yl)-3-oxopropyl)phenoxy)phenyl)propanoate]
< 500 | O=C(CCc1ccccc1Oc1ccccc1)N1CCNC[C@H]1Cc1ccc(O)cc1 [Example 68, (R)-1-(2-(4-hydroxybenzyl)piperazin-1-yl)-3-(2-phenoxyphenyl)-propan-1-one]
